Experimental data taken from patent US9999616B2 (ZENITH EPIGENETICS LTD., priority 2013, dated 2018).

What was measured:
hIL-6 mRNA = assay: Inhibition of hIL-6 mRNA transcription in LPS-stimulated U937 macrophages; assay type: cell-based, Human; conditions: Homo sapiens, U-937, PMA-differentiated U937 cells, 1 h pretreatment, LPS 3 h, read-out: IL-6 activity
Description: Human leukemic monocyte lymphoma U937 cells (CRL-1593.2) were plated at a density of 3.2×10^4 cells per well in a 96-well plate in 100 μL RPMI-1640 containing 10% FBS and penicillin/streptomycin, and differentiated into macrophages for 3 days in 60 ng/mL PMA ([…]) at 37° C. in 5% CO2 prior to the addition of compound. The cells were pretreated for 1 h with increasing concentrations of test compound in 0.1% DMSO prior to stimulation with 1 ug/mL lipopolysaccharide from Escherichia coli. Triplicate wells were used for each concentration. The cells were incubated at 37° C., 5% CO2 for 3 h before the cells were harvested. At time of harvest, media was removed and cells were rinsed in 200 μL PBS. Cells were harvested using the mRNA Catcher PLUS kit according to manufacturer's instructions. The eluted mRNA was then used in a one-step quantitative real-time PCR reaction using components of the RNA UltraSense™ One-Step Kit (Life Technologies) together with Applied Biosystems TaqMan® primer-probes for hIL-6 and Cyclophilin. Real-time PCR plates were run on a ViiA™7 real time PCR machine (Applied Biosystems), data was analyzed, normalizing the Ct values for hlL-6 to an internal control, prior to determining the fold expression of each sample, relative to the control.

Human AML MV-4-11 cells = assay: Inhibition of cell proliferation in MV4-11 cells (CellTiter Aqueous One); assay type: cell-based; conditions: MV4-11, 72 h
Outline: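 MV4-11 cells, 5×10^4 per well in IMDM with 10% FBS, were exposed to increasing compound concentrations or 0.1% DMSO for 72 h at 37 °C in triplicate. Viability was read by MTS (CellTiter Aqueous One) absorbance at 490 nm after 3-4 h. IC50 was derived from background-corrected signal relative to DMSO.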

[1] = target: Brd4 bromodomain 1 (BRD4(1)) (Homo sapiens, UniProt O60885); assay: Inhibition of tetra-acetylated histone H4 binding to Brd4 bromodomain 1, measured by FRET (HTRF); design: made in house; host or cells: E. coli BL21(DE3); conditions: 2 h at room temperature
Outline: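 N-terminally His-tagged bromodomain (200 nM), expressed in E. coli and purified by Ni affinity and size exclusion, was incubated with biotinylated tetra-acetylated H4 peptide (25-50 nM), Eu-cryptate streptavidin and XL665 anti-His in HEPES pH 7.4 buffer with 0.2% DMSO. Reactions ran 2 h at room temperature. IC50 came from the 665/620 nm fluorescence decrease.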

[2] = tested on: c-myc in Human AML MV4-11 cells; assay: Inhibition of cMYC expression (mRNA, real-time PCR) in MV4-11 cells; assay type: cell-based; conditions: 3 h treatment, cMYC mRNA by real-time PCR
Outline: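 MV4-11 cells in IMDM with 10% FBS were treated with increasing compound concentrations (DMSO 0.1%) for 3 h at 37 °C, in triplicate. Isolated mRNA was quantified by one-step TaqMan RT-qPCR, cMYC Ct normalized to cyclophilin, and fold expression given relative to DMSO control.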

| IC50 (hIL-6 mRNA) | IC50 (Human AML MV-4-11 cells) | IC50 [1] | IC50 [2] | SMILES |
| --- | --- | --- | --- | --- |
| ≤ 300 nM | 300 to 3000 nM | ≤ 300 nM | 300 to 3000 nM | Cc1noc(C)c1-c1cc(-c2cccc3c2cnn3C)c2nc[nH]c2c1 [Example Compound 23, 3,5-dimethyl-4-(4-(1-methyl-1H-indazol-4-yl)-1H-benzo[d]imidazol-6-yl)isoxazole] |
| 300 to 3000 nM | 300 to 3000 nM | ≤ 300 nM | ≤ 300 nM | Cc1nc2c(-c3ccccc3C)cc(-c3c(C)noc3C)cc2[nH]1 [Example Compound 89, 3,5-dimethyl-4-(2-methyl-4-(o-tolyl)-1H-benzo[d]imidazol-6-yl)isoxazole] |
| ≤ 300 nM | 300 to 3000 nM | ≤ 300 nM | 300 to 3000 nM | Cc1nc2c(-c3cccc4ccccc34)cc(-c3c(C)noc3C)cc2[nH]1 [Example Compound 138, 3,5-dimethyl-4-(2-methyl-4-(naphthalen-1-yl)-1H-benzo[d]imidazol-6-yl)isoxazole] |
| 300 to 3000 nM | 300 to 3000 nM | ≤ 300 nM | 300 to 3000 nM | Cc1noc(C)c1-c1cc(-c2cccc(C(N)=O)c2)c2nc[nH]c2c1 [Example Compound 36, 3-(6-(3,5-dimethyl-isoxazol-4-yl)-1H-benzo[d]imidazol-4-yl)benzamide] |
| 300 to 3000 nM | 300 to 3000 nM | ≤ 300 nM | 300 to 3000 nM | Cc1nc2c(Oc3cc(C(N)=O)ccc3C)cc(-c3c(C)noc3C)cc2[nH]1 [Example Compound 174, 3-((6-(3,5-dimethylisoxazol-4-yl)-2-methyl-1H-benzo[d]imidazol-4-yl)oxy)-4-methylbenzamide] |
| 300 to 3000 nM | 300 to 3000 nM | ≤ 300 nM | 300 to 3000 nM | Cc1nc2c(-c3ccccc3S(C)(=O)=O)cc(-c3c(C)noc3C)cc2[nH]1 [Example Compound 69, 3,5-dimethyl-4-(2-methyl-4-(2-(methyl-sulfonyl)phenyl)-1H-benzo[d]imidazol-6-yl)isoxazole] |
| ≤ 300 nM | 300 to 3000 nM | ≤ 300 nM | 300 to 3000 nM | Cc1noc(C)c1-c1cc(-c2ccnn2C)c2nc[nH]c2c1 [Example Compound 16, 3,5-dimethyl-4-(4-(1-methyl-1H-pyrazol-5-yl)-1H-benzo[d]imidazol-6-yl)isoxazole] |
| 300 to 3000 nM | 300 to 3000 nM | ≤ 300 nM | 300 to 3000 nM | Cc1noc(C)c1-c1cc(NCc2cccnc2)c2nc[nH]c2c1 [Example Compound 35, 6-(3,5-dimethyl-isoxazol-4-yl)-N-(pyridin-3-ylmethyl)-1H-benzo[d] imidazol-4-amine] |

Further lines, the compound ahead of its results:

| SMILES | IC50 (hIL-6 mRNA) | IC50 (Human AML MV-4-11 cells) | IC50 [1] | IC50 [2] |
| --- | --- | --- | --- | --- |
| Cc1noc(C)c1-c1cc(-c2c(C)noc2C)c2nc(N3CCOCC3)[nH]c2c1 [Example Compound 226, 4-(4,6-bis(3,5-dimethylisoxazol-4-yl)-1H-benzo[d]imidazol-2-yl)morpholine] | ≤ 300 nM | ≤ 300 nM | ≤ 300 nM | ≤ 300 nM |
| Cc1nc2c(CCc3ccccc3)cc(-c3c(C)noc3C)cc2[nH]1 [Example Compound 161, 3,5-dimethyl-4-(2-methyl-4-phenethyl-1H-benzo[d]imidazol-6-yl)isoxazole] | 300 to 3000 nM | 3000 to 30000 nM | ≤ 300 nM | 300 to 3000 nM |
| Cc1noc(C)c1-c1cc(-c2c(C)noc2C)c2c(cnn2C)c1 [Example Compound 54, 4,4′-(1-methyl-1H-indazole-5,7-diyl)bis(3,5-dimethylisoxazole)] | 300 to 3000 nM | ≤ 300 nM | ≤ 300 nM | 300 to 3000 nM |
| Cc1noc(C)c1-c1cc(-c2c(C)noc2C)c2nc(N3CCN(C)CC3)[nH]c2c1 [Example Compound 231, 4,4′-(2-(4-methyl-piperazin-1-yl)-1H-benzo[d]imidazole-4,6-diyl) bis(3,5-dimethylisoxazole)] | ≤ 300 nM | ≤ 300 nM | ≤ 300 nM | ≤ 300 nM |
| CNc1nc2c(-c3cnccc3C)cc(-c3c(C)noc3C)cc2[nH]1 [Example Compound 214, 6-(3,5-dimethyl-isoxazol-4-yl)-N-methyl-4-(4-methylpyridin-3-yl)-1H-benzo[d] imidazol-2-amine] | 300 to 3000 nM | ≤ 300 nM | ≤ 300 nM | ≤ 300 nM |
| Cc1nc2c(N3CCOCC3C)cc(-c3c(C)noc3C)cc2[nH]1 (stereo not drawn) [Example Compound 177, 4-(6-(3,5-dimethyl-isoxazol-4-yl)-2-methyl-1H-benzo[d]imidazol-4-yl)-3-methyl morpholine] | 300 to 3000 nM | 300 to 3000 nM | ≤ 300 nM | ≤ 300 nM |
| Cc1noc(C)c1-c1cc(-c2cccc(C#N)c2C)c2nc(NC3CCOCC3)[nH]c2c1 [Example Compound 204, 3-(6-(3,5-dimethyl-isoxazol-4-yl)-2-((tetrahydro-2H-pyran-4-yl)amino)-1H-benzo[d]imidazol-4-yl)-2-methyl benzonitrile] | ≤ 300 nM | ≤ 300 nM | ≤ 300 nM | ≤ 300 nM |
| Cc1nc2c(-c3cc(F)ccc3C(F)(F)F)cc(-c3c(C)noc3C)cc2[nH]1 [Example Compound 80, 4-(4-(5-fluoro-2-(trifluoro-methyl)phenyl)-2-methyl-1H-benzo[d]imidazol-6-yl)-3,5-dimethyl isoxazole] | 300 to 3000 nM | 300 to 3000 nM | ≤ 300 nM | ≤ 300 nM |
| Cc1nc2c(-c3cc(C(F)(F)F)ccc3Cl)cc(-c3c(C)noc3C)cc2[nH]1 [Example Compound 162, 4-(4-(2-chloro-5-(trifluoro-methyl)phenyl)-2-methyl-1H-benzo[d]imidazol-6-yl)-3,5-dimethyl isoxazole] | 300 to 3000 nM | 300 to 3000 nM | 300 to 3000 nM | 300 to 3000 nM |
| Cc1noc(C)c1-c1cc(-c2cnccc2C(F)(F)F)c2[nH]ncc2c1 [Example Compound 129, 3,5-dimethyl-4-(7-(4-(trifluoromethyl)pyridin-3-yl)-1H-indazol-5-yl)isoxazole] | 300 to 3000 nM | 300 to 3000 nM | 300 to 3000 nM | 300 to 3000 nM |
| Cc1nc2c(-c3csnc3C)cc(-c3c(C)noc3C)cc2[nH]1 [Example Compound 52, 3,5-dimethyl-4-(2-methyl-7-(3-methyliso-thiazol-4-yl)-1H-benzo[d]imidazol-5-yl)isoxazole] | 300 to 3000 nM | 300 to 3000 nM | ≤ 300 nM | 300 to 3000 nM |
| Cc1noc(C)c1-c1cc(-c2c(C)noc2C)c2[nH]c(CC(F)(F)F)nc2c1 [Example Compound 76, 4,4′-(2-(2,2,2-trifluoro-ethyl)-1H-benzo[d]imidazole-5,7-diyl)bis(3,5-dimethylisoxazole)] | 300 to 3000 nM | 300 to 3000 nM | ≤ 300 nM | 300 to 3000 nM |
| Cc1nc2c(Oc3cc(C#N)ccc3C)cc(-c3c(C)noc3C)cc2[nH]1 [Example Compound 172, 3-((6-(3,5-dimethyl-isoxazol-4-yl)-2-methyl-1H-benzo[d]imidazol-4-yl)oxy)-4-methyl benzonitrile] | 300 to 3000 nM | 300 to 3000 nM | ≤ 300 nM | 300 to 3000 nM |
| Cc1nc2c(-c3ccc(F)c(F)c3C)cc(-c3c(C)noc3C)cc2[nH]1 [Example Compound 132, 4-(4-(3,4-difluoro-2-methyl-phenyl)-2-methyl-1H-benzo[d]imidazol-6-yl)-3,5-dimethyl isoxazole] | 300 to 3000 nM | 300 to 3000 nM | 300 to 3000 nM | 300 to 3000 nM |
| Cc1ccc(C#N)cc1-c1cc(-c2c(C)noc2C)cc2[nH]c(NC3CCN(C)CC3)nc12 [Example Compound 205, 3-(6-(3,5-dimethyl-isoxazol-4-yl)-2-((1-methyl-piperidin-4-yl)amino)-1H-benzo[d]imidazol-4-yl)-4-methyl benzonitrile] | 300 to 3000 nM | 300 to 3000 nM | ≤ 300 nM | ≤ 300 nM |
| Cc1ccncc1-c1cc(-c2c(C)noc2C)cc2cn[nH]c12 [Example Compound 119, 3,5-dimethyl-4-(7-(4-methyl-pyridin-3-yl)-1H-indazol-5-yl)isoxazole] | ≤ 300 nM | 300 to 3000 nM | ≤ 300 nM | 300 to 3000 nM |
